We go through five compounds from US4412994A, “Mannich-base hydroxamic acid prodrugs, compositions and use” (INTERx Research Corporation, priority 1982, dated 1983).

This experiment has as its system mouse ear. As to the kind of experiment: mouse ear assay (croton oil-induced ear inflammation, anti-inflammatory activity). The class given is in vivo, male ddY strain mouse. The settings on record: topical, 0.05 ml in acetone containing 2% croton oil on right ear; 3 hours; linear regression of data at 2×10^-2, 4×10^-2 and 8×10^-2 M; groups of 15 mice. Here is the method:
G. Van Arman, Clin. Pharm. […] Details of the mouse ear assay are as follows:
The test animal was the male ddY strain mouse (20-25 grams each). Solutions of the test compound in acetone containing 2% croton oil (i.e. a solution containing 98 parts of acetone to 2 parts of croton oil) were prepared for varying concentrations of the test compound. Then, the test animals were anesthetized and 0.05 ml of the selected test solution was applied in 0.025 ml aliquots, one each to the anterior and posterior surface of the right ear of each mouse. Three hours after application, the mice were sacrificed via ether inhalation and both ears were removed from each mouse. Then, one circular section, 8 mm in diameter, was taken from each ear using a leather punch. The increase in weight caused by the irritant was determined by subtracting the weight of the untreated left ear section from that of the right ear section. Drug effects expressed as percent inhibition were determined at each selected concentration (molarity) of each test compound according to the following equation: [formula]
Groups of 15 mice were treated at each dosage level of each test compound. The control group consisted of 30 mice. In the control group, the right ear of each mouse was treated with the croton oil/acetone solution described above but not containing test compound, while the left ear of each control mouse was untreated.
Indomethacin, indomethacin hydroxamic acid and the compounds of Examples 3, 4 and 5 were tested according to the mouse ear assay described above.
`COc1ccc2c(c1)c(CC(=O)NO)c(C)n2C(=O)c1ccc(Cl)cc1` [Indomethacin hydroxamic acid, α-[1-(4'-Chlorobenzoyl)-5-methoxy-2-methylindol-3-yl]acetohydroxamicAcid] returned an ED50 of 0.096 M.
To `COc1ccc2c(c1)c(CC(=O)O)c(C)n2C(=O)c1ccc(Cl)cc1` [Indomethacin, 1-(4'-Chlorobenzoyl)-5-methoxy-2-methyl-3-indolylacetic Acid, reference compound] belongs 0.061 M.
As to `CCN(CC)CN(O)C(=O)Cc1c(C)n(C(=O)c2ccc(Cl)cc2)c2ccc(OC)cc12` [α-[1-(4'-Chlorobenzoyl)-5-methoxy-2-methylindol-3-yl]-N-(N', N'-diethylaminomethyl)acetohydroxamic Acid], the ED50 turned out to be 0.041 M.
To `COc1ccc2c(c1)c(CC(=O)N(O)CN1CCOCC1)c(C)n2C(=O)c1ccc(Cl)cc1` [α-[1-(4'-Chlorobenzoyl)-5-methoxy-2-methylindol-3-yl]-N-(morpholinomethyl)acetohydroxamic Acid] belongs 0.054 M; to `COc1ccc2c(c1)c(CC(=O)N(O)CN1CCN(C)CC1)c(C)n2C(=O)c1ccc(Cl)cc1` [α-[1-(4'-Chlorobenzoyl)-5-methoxy-2-methylindol-3-yl]-N-[(4-methylpiperazin-1-yl)methyl]acetohydroxamic Acid], 0.027 M.
